# Test results published in patent US12343326B2, “Psychoactive medicines and their use for treating psychiatric and neurological conditions and disorders” (Transcend Therapeutics, Inc., priority 2021, dated 2025).
# Columns and labels:
# Test in all cases: β-arrestin based GPCR screen (PathHunter / GPCRmax), antagonist mode
# [1] = biological target: 168 GPCRs (Homo sapiens, UniProt Q8NFJ6)
# [2] = biological target: 168 GPCRs (Homo sapiens, UniProt P32238); conditions: CCKAR, Antagonist
# [3] = biological target: 168 GPCRs (Homo sapiens, UniProt P35372)
# Chain of 168 GPCRs (Homo sapiens, UniProt P35372) (P35372 whole entry): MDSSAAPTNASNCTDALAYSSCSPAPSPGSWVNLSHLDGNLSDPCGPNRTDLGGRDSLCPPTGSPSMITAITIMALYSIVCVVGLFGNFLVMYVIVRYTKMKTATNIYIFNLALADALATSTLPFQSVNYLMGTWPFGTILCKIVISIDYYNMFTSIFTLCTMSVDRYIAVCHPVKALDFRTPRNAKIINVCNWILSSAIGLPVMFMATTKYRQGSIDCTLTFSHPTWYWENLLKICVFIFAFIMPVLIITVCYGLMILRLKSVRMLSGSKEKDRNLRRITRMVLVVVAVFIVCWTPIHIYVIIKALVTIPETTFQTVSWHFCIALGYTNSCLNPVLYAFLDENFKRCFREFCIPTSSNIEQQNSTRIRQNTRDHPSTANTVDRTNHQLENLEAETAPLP
# [4] = biological target: 168 GPCRs (Homo sapiens, UniProt P51681); conditions: CCR5, CCR5, Antagonist
# Chain of 168 GPCRs (Homo sapiens, UniProt P51681) (P51681 whole entry): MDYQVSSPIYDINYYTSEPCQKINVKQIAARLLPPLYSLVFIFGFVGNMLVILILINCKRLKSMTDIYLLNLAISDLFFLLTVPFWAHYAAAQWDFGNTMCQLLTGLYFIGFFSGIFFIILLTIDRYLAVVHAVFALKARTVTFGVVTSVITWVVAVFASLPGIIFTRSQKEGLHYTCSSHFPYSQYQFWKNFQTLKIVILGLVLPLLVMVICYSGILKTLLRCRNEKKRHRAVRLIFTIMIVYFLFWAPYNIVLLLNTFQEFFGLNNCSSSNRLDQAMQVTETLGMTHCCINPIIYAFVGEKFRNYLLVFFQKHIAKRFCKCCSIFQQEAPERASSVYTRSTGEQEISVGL
# [5] = biological target: 168 GPCRs (Homo sapiens, UniProt Q9H1C0)
# Chain of 168 GPCRs (Homo sapiens, UniProt Q9H1C0) (Q9H1C0 whole entry): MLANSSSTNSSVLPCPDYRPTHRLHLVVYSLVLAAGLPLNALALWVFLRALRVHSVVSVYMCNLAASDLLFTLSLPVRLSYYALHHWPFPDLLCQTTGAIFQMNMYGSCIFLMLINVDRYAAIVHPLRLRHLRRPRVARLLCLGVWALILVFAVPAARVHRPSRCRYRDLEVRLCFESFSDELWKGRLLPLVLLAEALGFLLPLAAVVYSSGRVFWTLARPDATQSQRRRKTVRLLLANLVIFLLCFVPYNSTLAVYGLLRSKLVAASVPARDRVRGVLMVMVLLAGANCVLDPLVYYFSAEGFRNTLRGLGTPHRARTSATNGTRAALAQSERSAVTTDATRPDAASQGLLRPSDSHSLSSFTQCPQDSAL
# [6] = biological target: 168 GPCRs (Homo sapiens, UniProt Q8TDV5)
# Chain of 168 GPCRs (Homo sapiens, UniProt Q8TDV5) (Q8TDV5 whole entry): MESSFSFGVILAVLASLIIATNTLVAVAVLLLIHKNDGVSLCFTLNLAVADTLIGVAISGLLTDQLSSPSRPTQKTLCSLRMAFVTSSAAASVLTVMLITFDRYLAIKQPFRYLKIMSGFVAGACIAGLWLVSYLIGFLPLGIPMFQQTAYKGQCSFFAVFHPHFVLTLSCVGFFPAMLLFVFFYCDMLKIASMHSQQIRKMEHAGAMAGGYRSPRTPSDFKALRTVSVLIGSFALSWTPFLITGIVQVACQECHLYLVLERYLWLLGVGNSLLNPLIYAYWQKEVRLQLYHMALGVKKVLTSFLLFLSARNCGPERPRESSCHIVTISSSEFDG
# [7] = biological target: 168 GPCRs (Homo sapiens, UniProt P30550); conditions: GRPR
# [8] = biological target: 168 GPCRs (Homo sapiens, UniProt P48146)
# Chain of 168 GPCRs (Homo sapiens, UniProt P48146) (P48146 whole entry): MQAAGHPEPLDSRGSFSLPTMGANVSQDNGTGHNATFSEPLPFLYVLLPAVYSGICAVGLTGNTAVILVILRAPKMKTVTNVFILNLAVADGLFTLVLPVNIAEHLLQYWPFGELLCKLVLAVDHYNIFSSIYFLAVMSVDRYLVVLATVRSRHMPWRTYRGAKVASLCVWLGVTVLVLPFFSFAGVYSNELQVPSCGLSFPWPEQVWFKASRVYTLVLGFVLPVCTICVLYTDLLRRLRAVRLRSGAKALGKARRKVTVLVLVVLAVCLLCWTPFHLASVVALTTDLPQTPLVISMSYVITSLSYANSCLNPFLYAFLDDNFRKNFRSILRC
# [9] = biological target: 168 GPCRs (Homo sapiens, UniProt Q9NSD7)
# Chain of 168 GPCRs (Homo sapiens, UniProt Q9NSD7) (Q9NSD7 whole entry): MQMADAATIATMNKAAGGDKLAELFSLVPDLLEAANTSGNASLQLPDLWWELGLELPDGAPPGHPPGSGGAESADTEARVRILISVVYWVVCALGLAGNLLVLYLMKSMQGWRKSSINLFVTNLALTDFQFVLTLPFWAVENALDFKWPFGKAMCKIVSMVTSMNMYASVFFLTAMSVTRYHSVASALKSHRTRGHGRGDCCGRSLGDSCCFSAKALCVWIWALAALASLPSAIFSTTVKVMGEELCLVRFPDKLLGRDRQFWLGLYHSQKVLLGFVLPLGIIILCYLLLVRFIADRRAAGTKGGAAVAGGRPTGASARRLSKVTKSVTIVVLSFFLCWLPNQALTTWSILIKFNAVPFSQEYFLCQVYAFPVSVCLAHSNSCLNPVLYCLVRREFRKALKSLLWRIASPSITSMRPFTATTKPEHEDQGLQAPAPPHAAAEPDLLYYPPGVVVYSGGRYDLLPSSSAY
# [10] = biological target: 168 GPCRs (Homo sapiens, UniProt P21452)
# [11] = biological target: 168 GPCRs (Homo sapiens, UniProt P32745)
# [12] = biological target: 168 GPCRs (Homo sapiens, UniProt O95136)
# [13] = biological target: 168 GPCRs (Homo sapiens, UniProt Q8TDS5)
# Chain of 168 GPCRs (Homo sapiens, UniProt Q8TDS5) (Q8TDS5 whole entry): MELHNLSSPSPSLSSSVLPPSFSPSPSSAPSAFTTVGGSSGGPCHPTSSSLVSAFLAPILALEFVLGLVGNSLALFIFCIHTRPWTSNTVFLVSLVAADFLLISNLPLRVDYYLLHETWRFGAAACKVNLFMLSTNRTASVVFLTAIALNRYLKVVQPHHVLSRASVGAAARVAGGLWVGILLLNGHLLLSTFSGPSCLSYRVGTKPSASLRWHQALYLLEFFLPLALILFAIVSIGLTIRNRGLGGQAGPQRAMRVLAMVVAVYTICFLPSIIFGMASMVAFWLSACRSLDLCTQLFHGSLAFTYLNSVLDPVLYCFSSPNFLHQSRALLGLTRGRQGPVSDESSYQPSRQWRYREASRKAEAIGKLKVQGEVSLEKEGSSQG
# [14] = biological target: 168 GPCRs (Homo sapiens, UniProt P35462)
# [15] = biological target: 168 GPCRs (Homo sapiens, UniProt O14842)
# Chain of 168 GPCRs (Homo sapiens, UniProt O14842) (O14842 whole entry): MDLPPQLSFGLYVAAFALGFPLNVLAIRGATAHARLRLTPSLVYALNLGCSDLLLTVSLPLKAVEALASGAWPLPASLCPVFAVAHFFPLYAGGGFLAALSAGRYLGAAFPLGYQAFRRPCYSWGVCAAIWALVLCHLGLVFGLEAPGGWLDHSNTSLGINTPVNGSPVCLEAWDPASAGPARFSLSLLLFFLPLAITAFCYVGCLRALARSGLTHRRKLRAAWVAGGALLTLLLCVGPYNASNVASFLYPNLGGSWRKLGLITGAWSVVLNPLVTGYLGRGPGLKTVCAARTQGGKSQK
# [16] = biological target: 168 GPCRs (Homo sapiens, UniProt P22888); conditions: LHCGR
# [17] = biological target: 168 GPCRs (Homo sapiens, UniProt O95838); conditions: GLP2R
# Chain of 168 GPCRs (Homo sapiens, UniProt O95838) (O95838 whole entry): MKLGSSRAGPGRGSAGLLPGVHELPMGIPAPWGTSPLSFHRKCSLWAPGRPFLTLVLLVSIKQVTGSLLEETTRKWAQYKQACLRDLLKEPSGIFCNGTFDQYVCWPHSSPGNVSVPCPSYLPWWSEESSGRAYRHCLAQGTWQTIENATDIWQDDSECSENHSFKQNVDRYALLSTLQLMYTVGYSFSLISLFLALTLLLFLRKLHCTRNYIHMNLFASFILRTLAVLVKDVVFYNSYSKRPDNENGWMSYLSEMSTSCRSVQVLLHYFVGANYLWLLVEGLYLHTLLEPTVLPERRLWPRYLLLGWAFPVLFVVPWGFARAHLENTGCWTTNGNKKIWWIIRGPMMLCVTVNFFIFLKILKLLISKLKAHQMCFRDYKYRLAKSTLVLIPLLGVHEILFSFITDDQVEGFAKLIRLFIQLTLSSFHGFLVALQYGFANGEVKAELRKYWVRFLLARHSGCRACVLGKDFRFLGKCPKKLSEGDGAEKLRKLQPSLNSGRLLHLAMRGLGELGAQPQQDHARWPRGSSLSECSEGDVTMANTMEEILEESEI
# [18] = biological target: 168 GPCRs (Homo sapiens, UniProt P30559); conditions: OXTR
# Chain of 168 GPCRs (Homo sapiens, UniProt P30559) (P30559 whole entry): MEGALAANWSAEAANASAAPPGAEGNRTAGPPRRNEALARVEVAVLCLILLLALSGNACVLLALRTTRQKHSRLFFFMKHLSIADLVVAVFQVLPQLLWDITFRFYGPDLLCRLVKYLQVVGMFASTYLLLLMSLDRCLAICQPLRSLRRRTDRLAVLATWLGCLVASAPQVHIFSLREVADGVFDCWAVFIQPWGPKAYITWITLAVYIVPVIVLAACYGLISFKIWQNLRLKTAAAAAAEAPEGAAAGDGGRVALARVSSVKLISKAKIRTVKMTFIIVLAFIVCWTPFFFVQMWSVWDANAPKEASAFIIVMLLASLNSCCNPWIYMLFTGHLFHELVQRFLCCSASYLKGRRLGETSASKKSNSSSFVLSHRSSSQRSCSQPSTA
# [19] = biological target: T1, 168 GPCRs (Homo sapiens, UniProt P32247); conditions: BRS3, Antagonist
# T1 sequence (P32247 1-399): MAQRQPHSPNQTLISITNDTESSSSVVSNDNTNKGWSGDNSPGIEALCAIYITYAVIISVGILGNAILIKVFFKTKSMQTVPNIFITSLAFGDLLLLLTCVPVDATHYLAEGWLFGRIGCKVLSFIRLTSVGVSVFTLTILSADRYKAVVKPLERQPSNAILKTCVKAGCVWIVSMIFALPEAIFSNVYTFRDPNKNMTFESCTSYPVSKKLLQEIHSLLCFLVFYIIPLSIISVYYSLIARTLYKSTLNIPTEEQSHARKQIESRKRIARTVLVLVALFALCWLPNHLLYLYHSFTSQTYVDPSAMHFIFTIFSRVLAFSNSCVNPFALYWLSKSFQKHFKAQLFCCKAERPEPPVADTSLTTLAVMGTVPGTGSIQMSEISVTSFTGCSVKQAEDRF
# [20] = biological target: 168 GPCRs (Homo sapiens, UniProt P41968); conditions: MC3R
# Chain of 168 GPCRs (Homo sapiens, UniProt P41968) (P41968 whole entry): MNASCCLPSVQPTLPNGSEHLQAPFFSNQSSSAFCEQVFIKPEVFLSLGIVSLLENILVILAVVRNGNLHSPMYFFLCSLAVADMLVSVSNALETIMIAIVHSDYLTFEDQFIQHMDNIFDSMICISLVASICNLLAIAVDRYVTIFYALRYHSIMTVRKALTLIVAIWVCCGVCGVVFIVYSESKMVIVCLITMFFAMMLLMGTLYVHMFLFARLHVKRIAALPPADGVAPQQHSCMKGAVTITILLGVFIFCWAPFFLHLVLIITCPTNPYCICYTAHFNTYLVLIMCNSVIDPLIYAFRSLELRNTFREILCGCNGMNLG
# Chain of 168 GPCRs (Homo sapiens, UniProt Q8NFJ6) (Q8NFJ6 whole entry): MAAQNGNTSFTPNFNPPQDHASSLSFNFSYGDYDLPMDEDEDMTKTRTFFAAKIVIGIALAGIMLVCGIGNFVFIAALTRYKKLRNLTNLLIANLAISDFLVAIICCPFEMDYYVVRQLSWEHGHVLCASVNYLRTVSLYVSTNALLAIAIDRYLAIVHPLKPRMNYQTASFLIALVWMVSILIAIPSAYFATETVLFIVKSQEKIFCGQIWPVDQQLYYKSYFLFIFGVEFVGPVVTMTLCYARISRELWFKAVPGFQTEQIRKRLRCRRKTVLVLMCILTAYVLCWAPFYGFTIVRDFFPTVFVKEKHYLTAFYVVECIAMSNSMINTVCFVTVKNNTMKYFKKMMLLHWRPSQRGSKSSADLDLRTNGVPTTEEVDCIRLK
smiles,measurement,setting,value
"CNC(C)C(=O)c1ccc2c(c1)OCO2 (stereo not shown) [methylone, 3,4-methylenedioxy-N-methylcathinone]",activity at 10 µM,"[1]; PROKR2, Antagonist mode, 10 uM",6.8%
same,activity at 1 µM,"[1]; PROKR2, Antagonist, 1 uM",2%
same,activity at 1 µM,[2]; 1 uM,-4.3%
same,activity at 10 µM,[2]; 10 uM,-3.3%
same,activity at 10 µM,"[3]; OPRM1, OPRM1, Antagonist mode, 10 uM",-18%
same,activity at 1 µM,"[3]; OPRM1, OPRM1, Antagonist, 1 uM",-8%
same,activity at 1 µM,[4]; 1 uM,1.7%
same,activity at 10 µM,[4]; 10 uM,-0.5%
same,activity at 10 µM,"[5]; GPR92, Antagonist mode, 10 uM",5.8%
same,activity at 1 µM,"[5]; GPR92, Antagonist, 1 uM",-8%
same,activity at 10 µM,"[6]; GPR119, Antagonist mode, 10 uM",-8.8%
same,activity at 1 µM,"[6]; GPR119, Antagonist, 1 uM",17.1%
same,activity at 10 µM,"[7]; Antagonist mode, 10 uM",-1.4%
same,activity at 1 µM,"[7]; Antagonist, 1 uM",0.7%
same,activity at 10 µM,"[8]; NPBWR2, Antagonist mode, 10 uM",-14%
same,activity at 1 µM,"[8]; NPBWR2, Antagonist, 1 uM",-14.1%
same,activity at 10 µM,"[9]; RXFP3, Antagonist mode, 10 uM",32.6%
same,activity at 1 µM,"[9]; RXFP3, Antagonist, 1 uM",23.1%
same,activity at 10 µM,"[10]; TACR2, Antagonist mode, 10 uM",9.1%
same,activity at 1 µM,"[10]; TACR2, Antagonist, 1 uM",10%
same,activity at 10 µM,"[11]; SSTR3, Antagonist mode, 10 uM",8%
same,activity at 1 µM,"[11]; SSTR3, Antagonist, 1 uM",13.2%
same,activity at 10 µM,"[12]; EDG5, Antagonist mode, 10 uM",-6.3%
same,activity at 1 µM,"[12]; EDG5, Antagonist, 1 uM",-3.4%
same,activity at 10 µM,"[13]; OXER1, Antagonist mode, 10 uM",7.6%
same,activity at 1 µM,"[13]; OXER1, Antagonist, 1 uM",2.9%
same,activity at 10 µM,"[14]; DRD3, Antagonist mode, 10 uM",-17.8%
same,activity at 1 µM,"[14]; DRD3, Antagonist, 1 uM",-12%
same,activity at 10 µM,"[15]; FFAR1, Antagonist mode, 10 uM",-13.8%
same,activity at 1 µM,"[15]; FFAR1, Antagonist, 1 uM",-7.9%
same,activity at 10 µM,"[16]; Antagonist mode, 10 uM",11.2%
same,activity at 1 µM,"[16]; Antagonist, 1 uM",13.8%
same,activity at 10 µM,"[17]; Antagonist mode, 10 uM",5.4%
same,activity at 1 µM,"[17]; Antagonist, 1 uM",5.4%
same,activity at 10 µM,"[18]; Antagonist mode, 10 uM",6.9%
same,activity at 1 µM,"[18]; Antagonist, 1 uM",12.7%
same,activity at 1 µM,[19]; 1 uM,18.3%
same,activity at 10 µM,[19]; 10 uM,10.1%
same,activity at 10 µM,"[20]; Antagonist mode, 10 uM",0.3%
same,activity at 1 µM,"[20]; Antagonist, 1 uM",-5.7%
